This is an account of results in ChEMBL document CHEMBL1158810, “Efficiency of foam fractionation for the enrichment of nonpolar compounds from aqueous extracts of plant materials” (J Nat Prod, 2005).

One may read the logP as the decadic logarithm of the partition coefficient of the neutral form, usually between octanol and water.

The first data set in a line: Octanol-water partition coefficient, log POW of the compound. In kind it is physicochemical.
Details: not given
Regarding `COc1cc(/C=C/C(=O)CC(=O)/C=C/c2ccc(O)c(OC)c2)ccc1O` [CURCUMIN], the logP came to 1.15.

The data set is the same for the next values; noted with them: read-out: logP.
On to `CC1=C[C@H](O)CC(C)(C)[C@H]1/C=C/C(C)=C/C=C/C(C)=C/C=C/C=C(C)/C=C/C=C(C)/C=C/C1=C(C)C[C@@H](O)CC1(C)C` [LUTEIN], for which the logP came out at 3.89. On the same count and under the same terms, to `CC(C)=CCC1=C(O)C(C(=O)CC(C)C)=C(O)[C@](O)(CC=C(C)C)C1=O` belongs 3.01; to `Oc1cc(O)c2c(c1)O[C@H](c1ccc(O)c(O)c1)[C@@H](O)C2` [CIANIDANOL], 0.53; to `CC1=C(/C=C/C(C)=C/C=C/C(C)=C/C=C/C=C(C)/C=C/C=C(C)/C=C/C2=C(C)CCCC2(C)C)C(C)(C)CCC1` [BETA CAROTENE], 4.19. Still for that read-out and setting: to `C[C@@H]1O[C@@H](O[C@H]2[C@H](Oc3cc(O)c4c(c3)O[C@H](c3ccc(O)cc3)CC4=O)O[C@H](CO)[C@@H](O)[C@@H]2O)[C@H](O)[C@H](O)[C@H]1O` [NARINGIN] belongs -0.15; to `Oc1cc(O)c2c(c1)O[C@H](c1ccc(O)c(O)c1)[C@H](O)C2` [(-)-EPICATECHIN], 0.67; to `O=C(O[C@@H]1Cc2c(O)cc(O)cc2O[C@@H]1c1cc(O)c(O)c(O)c1)c1cc(O)c(O)c(O)c1` [EPIGALOCATECHIN GALLATE], 0.09. With `O=C(O[C@@H]1Cc2c(O)cc(O)cc2O[C@@H]1c1ccc(O)c(O)c1)c1cc(O)c(O)c(O)c1` [EPICATECHIN GALLATE], the logP is 0.07. Same read-out and setting: to `COc1cc(/C=C/C(O)=C/C(=O)/C=C/c2ccc(O)cc2)ccc1O` [DEMETHOXYCURCUMIN] belongs 1; to `COc1ccc([C@@H]2CC(=O)c3c(O)cc(O[C@@H]4O[C@H](CO[C@@H]5O[C@@H](C)[C@H](O)[C@@H](O)[C@H]5O)[C@@H](O)[C@H](O)[C@H]4O)cc3O2)cc1O` [HESPERIDIN], -0.21. Still for that read-out and setting: to `O=C(/C=C/c1ccc(O)cc1)CC(=O)/C=C/c1ccc(O)cc1` [BISDEMETHOXYCURCUMIN] belongs 0.85; to `Oc1cc(O)c2c(c1)O[C@H](c1cc(O)c(O)c(O)c1)[C@H](O)C2` [EPIGALLOCATECHIN], 0.13. Same read-out and setting: to `CC(C)=CCC1=C(O)C(C(=O)C(C)C)=C(O)[C@](O)(CC=C(C)C)C1=O` belongs 2.92; to `O=C(O[C@@H]1Cc2c(O)cc(O)cc2O[C@H]1c1cc(O)c(O)c(O)c1)c1cc(O)c(O)c(O)c1` [GALLOCATECHIN GALLATE], 0.12.
